# From patent US3997506A (priority 1974, dated 1976)
# Like-named read-outs stand apart in the source and are kept apart here.
# Tests used:
# human leucocytes [1] = settings: 0.01 μg/ml to 10 μg/ml; up to 30 hours; no PHA
# cat = settings: intravenous, literature; cited from earlier work
# [2] = tested on: oedema produced by crystals of urate in the hind paw of the rat; assay type: in vivo, Sprague Dawely female rats; settings: for % of inhibition of edema / Difference in weight between left and right leg (Average ± standard deviation of mean term): three subcutaneous injections, 6 h after urate; for protection against the oedema produced by crystals of urate (in words): colchicine 2 mg/kg, derivative 6 mg/kg
# mouse = settings: intraperitoneal, literature; cited from earlier work
# rat = settings: intravenous, literature; cited from earlier work
# in vitro = assay type: cell-based, human; settings: human, leucocytes, read-out: % of dead cells
# Procedure: (§1) The cytotoxicity has been investigated on human leucocytes by means of the viability test with Trypan blue.
# (§2) a. In a first experimentation cultures of leucocytes of a voluntary […] were prepared and caused to undergo incubation with phytohemagglutinin (PHA) and with different concentrations of colchicine or of its derivative (C1 = 2.5 μg/ml of culture, C3 = 10 μg/ml, C5 = 30 μg/ml, C6 = 50 μg/ml). Leucocytes only containing PHA served as controls.
# (§3) After 3, 42, 68 and 72 hours of incubation a sample of each culture was contacted by a drop of Trypan blue and laid on a slide of a microscope. Then took place the counting of the dead cells (those with assumed an […] colour) and of all the cells present on the slide in order to obtain the ratio of the number of dead cells to the total number of cells. The results expressed as a rate in per cent are shown in the accompanying table 8.
# (§4) b. After the experimentation which has just been described, the study of cytotoxicity has been continued with two other samples of human leucocytes still by means of the viability test with Trypan blue.
# (§5) C1 = 2.5 μg/ml of culture
# (§6) C6 = 50 μg/ml of culture;
# (§7) and for the carboxy-1-adamantane fraction to:
# (§8) C3 = 4.5 μg/ml of culture
# (§9) C6 = 22.5 μg/ml of culture.
# (§10) Leucocytes only containing phytohemagglutinin and others containing phytohemagglutinin and 50 μl of methanol served as controls.
# (§11) The percentage of dead cells was determined after different numbers of hours of incubation.
# human leucocytes [3] = experiment: in vitro; assay type: cell-based; settings: for cytotoxicity, colchicine versus derivative (in words): C1 = 2.5 μg/ml; for % of dead cells: C6 = 50 μg/ml
# Procedure: as §1, §2, §3, §4, §5, §6, §7, §8, §9, §10, §11
# phagocytosis = settings: literature, cited from earlier work
# man = settings: may sometimes be of 6 mg only, literature; cited from earlier work
# viruses = experiment: Antiviral activity (statement); settings: general statement
# [4] = General toxicity statement (LD50 and toxicity relative to thiocolchicine and colchicine); settings: in vivo; of the weight of the body of animals
# animals = experiment: as above; settings: in vivo
# [5] = first experimentation, C1 = 2.5 μg/ml
# [6] = first experimentation, C3 = 10 μg/ml
# [7] = first experimentation, C5 = 30 μg/ml
# [8] = first experimentation, C6 = 50 μg/ml
smiles,measurement,setting,value
"COc1cc2c(c(OC)c1OC)-c1ccc(OC)c(=O)cc1[C@@H](NC(C)=O)CC2 [Colchicine, colchicine, reference compound]",cytotoxicity (in words),human leucocytes [1],no cytotoxicity is detectable
same,LD50,cat,0.25 mg/kg
same,% of inhibition of edema,[2]; 2 mg/kg,48%
same,Difference in weight between left and right leg (Average ± standard deviation of mean term),[2]; 2 mg/kg,0.152 ± 0.019 g
same,protection against the oedema produced by crystals of urate (in words),[2],significant protection
same,LD50,mouse,1 mg/kg
same,LD50,rat,1.7 mg/kg
same,cytotoxicity at 4 h,"in vitro; Culture I, C3 = 10 μg/ml",6%
same,cytotoxicity at 4 h,"in vitro; Culture I, C6 = 50 μg/ml",9%
same,cytotoxicity at 22 h,"in vitro; Culture I, C3 = 10 μg/ml",5%
same,cytotoxicity at 22 h,"in vitro; Culture I, C6 = 50 μg/ml",7%
same,cytotoxicity at 46 h,"in vitro; Culture I, C3 = 10 μg/ml",24%
same,cytotoxicity at 46 h,"in vitro; Culture I, C6 = 50 μg/ml",19%
same,cytotoxicity at 76 h,"in vitro; Culture I, C3 = 10 μg/ml",24%
same,cytotoxicity at 76 h,"in vitro; Culture I, C6 = 50 μg/ml",23%
same,cytotoxicity at 23 h,"in vitro; Culture II, C1 = 2.5 μg/ml",3%
same,cytotoxicity at 23 h,"in vitro; Culture II, C3 = 10 μg/ml",4%
same,cytotoxicity at 23 h,"in vitro; Culture II, C5 = 30 μg/ml",5%
same,cytotoxicity at 46 h,"in vitro; Culture II, C1 = 2.5 μg/ml",11%
same,cytotoxicity at 46 h,"in vitro; Culture II, C3 = 10 μg/ml",8%
same,cytotoxicity at 46 h,"in vitro; Culture II, C5 = 30 μg/ml",11%
same,cytotoxicity at 72 h,"in vitro; Culture II, C1 = 2.5 μg/ml",13%
same,cytotoxicity at 72 h,"in vitro; Culture II, C3 = 10 μg/ml",14%
same,cytotoxicity at 72 h,"in vitro; Culture II, C5 = 30 μg/ml",18%
same,cytotoxicity at 3 h,in vitro; [5],1%
same,cytotoxicity at 3 h,in vitro; [6],1%
same,cytotoxicity at 3 h,in vitro; [7],0%
same,cytotoxicity at 3 h,in vitro; [8],0%
same,cytotoxicity at 42 h,in vitro; [5],3%
same,cytotoxicity at 42 h,in vitro; [6],2%
same,cytotoxicity at 42 h,in vitro; [7],10%
same,cytotoxicity at 42 h,in vitro; [8],2%
same,cytotoxicity at 68 h,in vitro; [5],6%
same,cytotoxicity at 68 h,in vitro; [6],9%
same,cytotoxicity at 68 h,in vitro; [7],9%
same,cytotoxicity at 68 h,in vitro; [8],21%
same,cytotoxicity at 72 h,in vitro; [5],7%
same,cytotoxicity at 72 h,in vitro; [7],18%
same,cytotoxicity at 72 h,in vitro; [8],24%
same,"cytotoxicity, cultures I and II (in words)",human leucocytes [3],practically identical with that due to the methanol
same,"cytotoxicity, colchicine versus derivative (in words)",human leucocytes [3]; first experimentation,substantially the same
same,% phagocytosis,phagocytosis; 0.004 μg of colchicine,68.6 ± 3.7%
same,% phagocytosis,phagocytosis; 0.04 μg of colchicine,54.2 ± 5.4%
same,% phagocytosis,phagocytosis; 0.4 μg of colchicine,39.8 ± 1.2%
same,lethal dose,man,6 mg
"COc1cc2c(c(OC)c1OC)-c1ccc(SC)c(=O)cc1C(NC(=O)C13CC4CC(CC(C4)C1)C3)CC2 (single isomer, unassigned) [Derivative, N-desacetyl-N-adamantoyl-thiocolchicine]",cytotoxicity (in words),human leucocytes [1],no cytotoxicity is detectable
same,% of inhibition of edema,[2]; 2 mg/kg,10%
same,Difference in weight between left and right leg (Average ± standard deviation of mean term),[2]; 2 mg/kg,0.264 ± 0.031 g
same,% of inhibition of edema,[2]; 6 mg/kg,50%
same,Difference in weight between left and right leg (Average ± standard deviation of mean term),[2]; 6 mg/kg,0.145 ± 0.019 g
same,protection against the oedema produced by crystals of urate (in words),[2],significant protection
same,cytotoxicity at 4 h,"in vitro; Culture I, C3 = 10 μg/ml",15%
same,cytotoxicity at 4 h,"in vitro; Culture I, C6 = 50 μg/ml",17%
same,cytotoxicity at 22 h,"in vitro; Culture I, C3 = 10 μg/ml",12%
same,cytotoxicity at 22 h,"in vitro; Culture I, C6 = 50 μg/ml",22%
same,cytotoxicity at 46 h,"in vitro; Culture I, C3 = 10 μg/ml",42%
same,cytotoxicity at 46 h,"in vitro; Culture I, C6 = 50 μg/ml",53%
same,cytotoxicity at 76 h,"in vitro; Culture I, C3 = 10 μg/ml",40%
same,cytotoxicity at 76 h,"in vitro; Culture I, C6 = 50 μg/ml",62%
same,cytotoxicity at 23 h,"in vitro; Culture II, C1 = 2.5 μg/ml",8%
same,cytotoxicity at 23 h,"in vitro; Culture II, C3 = 10 μg/ml",11%
same,cytotoxicity at 23 h,"in vitro; Culture II, C5 = 30 μg/ml",16%
same,cytotoxicity at 46 h,"in vitro; Culture II, C1 = 2.5 μg/ml",4%
same,cytotoxicity at 46 h,"in vitro; Culture II, C3 = 10 μg/ml",13%
same,cytotoxicity at 46 h,"in vitro; Culture II, C5 = 30 μg/ml",22%
same,cytotoxicity at 72 h,"in vitro; Culture II, C1 = 2.5 μg/ml",26%
same,cytotoxicity at 72 h,"in vitro; Culture II, C3 = 10 μg/ml",41%
same,cytotoxicity at 72 h,"in vitro; Culture II, C5 = 30 μg/ml",43%
same,cytotoxicity at 72 h,"in vitro; Culture II, C6 = 50 μg/ml, *x/x = 2 different tubes",61%
same,cytotoxicity at 3 h,in vitro; [5],0%
same,cytotoxicity at 3 h,in vitro; [6],0%
same,cytotoxicity at 3 h,in vitro; [7],0%
same,cytotoxicity at 42 h,in vitro; [5],5%
same,cytotoxicity at 42 h,in vitro; [6],7%
same,cytotoxicity at 42 h,in vitro; [7],23%
same,cytotoxicity at 42 h,in vitro; [8],32%
same,cytotoxicity at 68 h,in vitro; [5],5%
same,cytotoxicity at 68 h,in vitro; [6],9%
same,cytotoxicity at 68 h,in vitro; [7],20%
same,cytotoxicity at 72 h,in vitro; [5],9%
same,cytotoxicity at 72 h,in vitro; [6],12%
same,cytotoxicity at 72 h,in vitro; [7],35%
same,"cytotoxicity, cultures I and II (in words)",human leucocytes [3],does not seem to be very different from that of colchicine or methanol after 23 hours of incubation; however for longer periods of time and more especially with concentrations C5 and C6 it becomes more substantial
same,% of dead cells,"human leucocytes [3]; first experimentation, 68 hours",very few
same,% of dead cells,"human leucocytes [3]; first experimentation, 72 hours",very few
same,"cytotoxicity, colchicine versus derivative (in words)",human leucocytes [3]; first experimentation,substantially the same
same,cytotoxicity compared with colchicine (in words),"human leucocytes [3]; first experimentation, higher concentrations",more cytotoxic than colchicine itself
same,activity against viruses (in words),viruses,active against many viruses
same,LD50,[4],~3000 mg/kg
same,high toxicity relative to colchicine,animals,"about 3,000 times less than that of colchicine"
same,toxicity relative to thiocolchicine,animals,30 times less toxic than thiocolchicine
